In patent US4681899A, “Method of preventing the growth of malaria parasites in erythrocytes” (priority 1985, dated 1987):

What was measured:
[1] = system: mice; assay: side effects in mice at 3 mg/kg/day orally; format: in vivo
Protocol: (§1) A control and a drug concentration (approximately 3 mg/kg body weight/day) were provided orally via drinking water. Water containing drugs were prepared daily. Water intake were monitored daily to insure proper dosage and hydration levels. A commercial food pellet were provided ad libitum.
Ohnishi tested an in vivo efficacy of these drugs using mice infected by p. Falciparum.

[2] = system: beta-adrenergic; conditions: cited from earlier work
[3] = system: p. Falciparum; assay: in vivo efficacy in mice infected by p. Falciparum (FIG. 3); conditions: 3 mg/kg/day orally
[4] = system: sickle red cells; conditions: studies on sickle red cells; cited from earlier work
[5] = system: man; conditions: adults; mixture of l-form and d-form; cited from earlier work
[6] = system: mice; conditions: oral administration; cited from earlier work
[7] = system: p. Vinckei; assay: in vivo efficacy in mice infected with p. Vinckei (FIG. 4); conditions: oral, 3 mg/kg body weight
Protocol: Mice: Four to eight-week-old BALB/C male and female mice from a breeding colony were used.
Parasite: Stabilates of p. Vinchei TCC 30091) and p. Falciparum (FCR-3 knobless) were used.
In vivo method: The tail vein was nicked and a blood droplet was smeared.
The smears were stained with Giemsa, infected erythrocytes (which contain trophozoite and schizont stage parasites) were counted and percent parasitemia estimated.
Approximately 10^5 p. Vinchei parasites were injected intraperitoneally (I.P.) into a donor mouse and at the time of ascending parasitemia, the infected mouse was exsanguinated and red blood cells are prepared for in vivo experimentation.
as §1
To each mouse, 10^6 parasitized red blood cells were injected I.P., and daily blood samples were collected from the tail vein to monitor the levels of parasitemia.
Five mice were used for each group tested.
During the experimentation, we monitored both the percent parasitemia and percent survival rate of each experimental group.
Using p. Vinckei and a mice model, Ohnishi has also tested the efficacy of W-7.

## CC(C)NC[C@H](O)COc1cccc2ccccc12 [l-propranolol]
[1]
  side effect: no side effect was observed
[2]
  beta-adrenergic blocker activity of the form: active beta-adrenergic blocker
[3]
  inhibition of the growth of parasites in mice: effectively inhibited the growth of parasites in mice

## C=CCc1ccccc1OCC(O)CNC(C)C (stereo not drawn) [alprenolol]
[4]
  effect on red cell metabolism and cell sickling: altered the red cell metabolism and thus affected the cell sickling

## CC(C)NCC(O)COc1cccc2ccccc12 (stereo not drawn) [propranolol]
[4]
  effect on red cell metabolism and cell sickling: altered the red cell metabolism and thus affected the cell sickling
[5]
  usual effective dose in man as an anti-hypertensive drug (daily): 160-480 mg daily
  usual effective dose in man as an anti-hypertensive drug (per body weight): 3-8 mg/kg body weight/day

## C=CCc1ccccc1OC[C@@H](O)CNC(C)C [l-alprenolol]
[6]
  acute LD50: 278 mg/kg

## CC(C)NC[C@@H](O)COc1cccc2ccccc12 [d-propranolol]
[1]
  side effect: no side effect was observed
[2]
  beta-adrenergic blocker activity of the form: inactive beta-adrenergic blocker
[3]
  inhibition of the growth of parasites in mice: effectively inhibited the growth of parasites in mice

## NCCCCCCNS(=O)(=O)c1cccc2c(Cl)cccc12 [W-7]
[4]
  effect on red cell metabolism and cell sickling: altered the red cell metabolism and thus affected the cell sickling
[6]
  acute LD50: 75 mg/kg
[7]
  life span after infection: extended their life span after infection
  suppression of the growth of parasites: suppressed the growth of parasites
